How the values were obtained:
[1] = test system: reactive oxygen species in CCRF-CEM cells; experiment: ROS production (H2DCFH-DA staining, flow cytometry); assay type: cell-based; settings: 24 h
Method: Various concentrations of HRB and triterpenoid 1 were used to treat CCRF-CEM cells (1 × 10^6 cells); DMSO (solvent control); or hydrogen peroxide (H2O2; positive control). After 24 h incubation in humidified 5% CO2 atmosphere at 37°C, the production of ROS was evaluated using 2′,7′-dichlorodihydrofluorescein diacetate (H2DCFH-DA) (Sigma-Aldrich) staining, as described earlier.

[2] = test system: 9 tested cancer cell lines; experiment: Resazurin reduction assay (RRA), whole panel; assay type: cell-based; settings: for cytotoxic effect over the panel (in words): 9 tested cancer cell lines; for IC50: whole cell line panel, 72 h, read-out: IC50 in the cancer cells tested
Text: (§1) Cell lines used in this work included drug-sensitive and drug-resistant phenotypes of earlier reported origin. They were all provided by Prof. Dr. Thomas Efferth from his cell lines collection; they have being used in cytotoxicity screening by our team for a decade. These include two hematological cancer cell lines, namely, the drug-sensitive CCRF-CEM leukemia cell line and its multidrug-resistant P-gp-over-expressing subline CEM/ADR5000 cells and […] carcinoma cell lines, namely, U87.MG glioblastoma cell line and its EGFR-transfected U87.MGΔEGFR subline, HCT116 (p53^+/+) colon cancer cell line and its knockout clone HCT116 (p53^−/^−), and MDA-MB-231-pcDNA3 breast cancer cell line and its BCRP-transfected multidrug-resistant MDA-MB-231-BCRP clone 23 cell line, as well as the normal AML12 hepatocytes, used to compare with HepG2 liver cancer cells.
(§2) The RRA was applied to evaluate the cytotoxicity of botanicals, the isolated phytochemicals (1–5, 7, and 8), and doxorubicin on the cell growth as reported earlier. Cells treated with various samples at different concentrations were incubated for 72 h in humidified 5% CO2 atmosphere at 37°C. Cells were further coloured with resazurin and incubated for 1–2 h; the fluorescence was further measured with an Infinite M2000 Pro™ plate reader (Tecan, Crailsheim, Germany) at 544 nm as the excitation wavelength and 590 nm as the emission wavelength. The IC50 values represented the concentrations of the sample required to inhibit 50% of cell proliferation and were calculated from a calibration curve by linear regression using Microsoft Excel 2007 [29].

[3] = test system: U87MG.ΔEGFR glioblastoma cells; experiment: Resazurin reduction assay (RRA), 72 h; assay type: cell-based; settings: 72 h incubation
Text: as §1, §2

[4] = test system: HCT116 (p53+/+) colon adenocarcinoma cells; experiment: Resazurin reduction assay (RRA), 72 h; assay type: cell-based; settings: Homo sapiens, HCT-116, 72 h incubation
Text: as §1, §2

[5] = test system: HepG2 hepatocarcinoma cells; experiment: Resazurin reduction assay (RRA), 72 h; assay type: cell-based; settings: Homo sapiens; HepG2, 72 h incubation
Text: as §1, §2

normal AML12 hepatocytes = experiment: Resazurin reduction assay (RRA), 72 h; assay type: cell-based; settings: for Selectivity index: IC50 normal AML12 hepatocytes divided by IC50 HepG2; for IC50: Mus musculus, AML12 normal hepatocytes, 72 h incubation
Text: as §1, §2

CCRF-CEM leukemia cells = experiment: Resazurin reduction assay (RRA), 72 h; assay type: cell-based; settings: Homo sapiens, 72 h incubation
Text: as §1, §2

[6] = test system: HCT116 (p53-/-) colon cancer cells; experiment: Resazurin reduction assay (RRA), 72 h; assay type: cell-based; settings: Homo sapiens, HCT-116, 72 h incubation
Text: as §1, §2

[7] = test system: MDA-MB-231-pcDNA breast cancer cells; experiment: Resazurin reduction assay (RRA), 72 h; assay type: cell-based; settings: 72 h incubation
Text: as §1, §2

[8] = test system: MDA-MB-231-BCRP breast cancer cells; experiment: Resazurin reduction assay (RRA), 72 h; assay type: cell-based; settings: 72 h incubation
Text: as §1, §2

U87MG glioblastoma cells = experiment: Resazurin reduction assay (RRA), 72 h; assay type: cell-based; settings: Homo sapiens, U-87 MG, 72 h incubation
Text: as §1, §2

[9] = test system: CEM/ADR5000 leukemia cells (P-gp-overexpressing); experiment: Resazurin reduction assay (RRA), 72 h; assay type: cell-based; settings: Homo sapiens; CEM/ADR5000, 72 h incubation
Text: as §1, §2

K562 leukemia cells = test system: K562 leukemia cells; set-up: method as in PMID 31479710; settings: cited from earlier work
[10] = test system: all cancer cell lines tested in the present study; set-up: method as in PMID 24075210; settings: cited from earlier work
CCRF-CEM cells [11] = experiment: Flow cytometric cell cycle distribution (propidium iodide); assay type: cell-based; settings: 24 h
Method: Various concentrations of botanical HRB, phytochemical 1, and doxorubicin or DMSO (solvent control) were used to treat CCRF-CEM cells (1 × 10^6 cells). Cells were further incubated for 24 h in humidified 5% CO2 atmosphere at 37°C and analyzed using a BD Accury C6 Flow Cytometer (BD Biosciences, Heidelberg, Germany) by measuring the propidium iodide fluorescence of individual nucleus, as described earlier. Experiments were conducted thrice independently with three parallel measurements.

HepG2 cells = test system: HepG2 cells; set-up: method as in PMID 31360210; settings: cited from earlier work
CEM-ADR5000 cells = test system: CEM-ADR5000 cells; set-up: method as in PMID 31360210; settings: cited from earlier work
[12] = test system: caspase 9 in CCRF-CEM cells; experiment: Caspase-Glo 9 assay; assay type: cell-based; settings: 6 h, compared to untreated cells
Method: (§3) Different concentrations of HRB and compound 1 were used to treat CCRF-CEM cells for 6 h. The activities of caspases were determined using Caspase-Glo 3/7, Caspase-Glo 8, and Caspase-Glo 9 Assay kits (Promega, Mannheim, Germany) by measuring the luminescence using an Infinite M2000 ProTM plate reader (Tecan), as reported previously.

[13] = test system: caspase 8 in CCRF-CEM cells; experiment: Caspase-Glo 8 assay; assay type: cell-based; settings: 6 h, compared to untreated cells
Method: as §3

[14] = test system: caspases 3/7 in CCRF-CEM cells; experiment: Caspase-Glo 3/7 assay; assay type: cell-based; settings: 6 h, compared to untreated cells
Method: as §3

CCRF-CEM cells [15] = experiment: Apoptosis by annexin V/PI staining; assay type: cell-based; settings: 24 h, 2 × IC50
Method: The CCRF-CEM cells (1 × 10^6; 1 ml) were also treated with HRB, compound 1 and doxorubicin for 24 h (in humidified 5% CO2 atmosphere at 37°C), and apoptosis was further assessed by flow cytometry using the flouresceinisothiocynate- (FITC-) conjugated annexin V/PI assay kit (eBioscience™Annexin V; Invitogen, San Diego, USA), as previously published. Briefly, treated cells were centrifuged at 1200 rpm for 5 min, then washed twice with ice-cold PBS, resuspended in 500 µl binding buffer, and stained with 5 µl FITC-conjugated annexin V ([…]) and 10 µl PI ([…]). After 15 min incubation at room temperature (RT) in the dark, cells were analyzed using a BD Accury C6 Flow Cytometer (BD Biosciences). Cells stained with only annexin V were evaluated as being in early apoptosis. Cells stained with both annexin V and propidium iodide were evaluated as being in late apoptosis or in a necrotic stage.

Compound	cytotoxic effect over the panel (in words) [2]	IC50 [3]	IC50 [4]	IC50 [5]	IC50 (normal AML12 hepatocytes)	IC50 (CCRF-CEM leukemia cells)	IC50 [6]	IC50 [7]	IC50 [8]	IC50 (U87MG glioblastoma cells)	IC50 [9]	further results
OO [H2O2, Hydrogen peroxide, reference compound]	–	–	–	–	–	–	–	–	–	–	–	ROS levels ([1]; 50 µM): 94.30%
COc1cc(C2Oc3ccc4c(=O)c5c(O)cc(O)cc5oc4c3OC2CO)cc(OC)c1O (stereo not drawn) [Compound 7, 3′-hydroxymethyl-2′-(4″-hydroxy-3″,5″-dimethoxyphenyl)-5′,6′:5,6-(6,8-dihydroxyxanthone)-1′,4′-dioxane]	selective cytotoxic effects	12.7 ± 0.75 µM	> 91.7 µM	25.2 ± 1.69 µM	20.9 ± 1.17 µM	23.3 ± 1.46 µM	> 91.7 µM	20.7 ± 1.32 µM	22.2 ± 2.88 µM	29.7 ± 1.77 µM	54 ± 4.38 µM	Selectivity index (normal AML12 hepatocytes): 0.83
O=c1c2ccc(O)c(O)c2oc2cc(O)cc(O)c12 [Compound 5, 1,3,5,6-tetrahydroxyxanthone]	–	59 ± 6.01 µM	75.5 ± 6.1 µM	64.7 ± 5.77 µM	150 ± 7.03 µM	38.6 ± 2.11 µM	112 ± 8.49 µM	75.2 ± 4.88 µM	62.9 ± 5.32 µM	61.4 ± 3.39 µM	38.5 ± 4.07 µM	cytotoxic effect against K562 (K562 leukemia cells): 12.98 µg/mL; IC50 (K562 leukemia cells; read-out: cytotoxic effect against K562): 49.9 µM
O=c1c2cc(O)c(O)cc2oc2cc(O)cc(O)c12 [Compound 4, 1,3,6,7-tetrahydroxyxanthone]	selective cytotoxic effects	30.4 ± 2.91 µM	40.2 ± 3.09 µM	32.4 ± 3.72 µM	45.4 ± 3.52 µM	19.9 ± 2.12 µM	> 154 µM	> 154 µM	20.4 ± 1.17 µM	106 ± 6.74 µM	23.2 ± 1.66 µM	Selectivity index (normal AML12 hepatocytes): 1.40
COc1cccc2c(=O)c3cc(O)ccc3oc12 [Compound 3, 2-hydroxy-5-methoxyxanthone]	selective cytotoxic effects	45 ± 5.22 µM	46.7 ± 3.38 µM	44.2 ± 2.65 µM	> 165 µM	16.8 ± 0.96 µM	> 165 µM	43.8 ± 3.47 µM	33.6 ± 1.99 µM	74.4 ± 4.75 µM	53 ± 3.08 µM	–
cudraxanthone I	–	–	–	–	–	–	–	–	–	–	–	IC50 [10]: < 10 µM
COc1cccc2c1C(=O)c1c(O)c3c(c(O)c1C2=O)C[C@@](O)(C(=O)CO)C[C@@H]3O[C@H]1C[C@H](N)[C@H](O)[C@H](C)O1 [Doxorubicin, reference compound]	–	0.98 ± 0.07 µM	–	4.56 ± 0.48 µM	52.9 ± 4.09 µM	0.02 µM	1.78 ± 0.08 µM	0.13 ± 0.01 µM	0.79 ± 0.08 µM	0.26 ± 0.03 µM	–	cell cycle arrest (phase, in words) (CCRF-CEM cells [11]): S and G2/M phase arrest
C=C(C)[C@@H]1CC[C@]2(C(=O)O)CC[C@]3(C)[C@H](CC[C@@H]4[C@@]5(C)CC[C@H](O)C(C)(C)[C@@H]5CC[C@]43C)[C@@H]12 [Compound 6, betulinic acid]	–	–	–	–	–	–	–	–	–	–	–	IC50 (HepG2 cells): 44.2 µM; IC50 (CEM-ADR5000 cells): 7.65 µM
C[C@H]1C(=O)CC[C@@H]2[C@]1(C)CC[C@H]1[C@@]2(C)CC[C@@]2(C)C3CC(C)(C)CC[C@]3(C)CC[C@]12C (stereo partly drawn) [Compound 2, fridelan-3-one]	–	–	–	–	–	–	–	–	–	–	–	IC50 [2]: > 100 µM
C[C@H]1C(=O)CC[C@@H]2[C@]1(C)CC[C@H]1[C@@]2(C)CC[C@@]2(C(=O)O)C3CC(C)(C)CC[C@]3(C)CC[C@]12C (stereo partly drawn) [Compound 1, trichadonic acid]	–	14.7 ± 1.55 µM	17.4 ± 1.84 µM	21.7 ± 3.18 µM	47.3 ± 0.81 µM	14.4 ± 0.53 µM	44.2 ± 3.21 µM	16.5 ± 0.74 µM	15 ± 1.17 µM	16.2 ± 1.09 µM	18.3 ± 1.56 µM	increase of caspase 9 activity [12]: 2.23 fold; IC50 [2]: 14.4 to 44.2 µM; increase of caspase 8 activity [13]: 2.62 fold; ROS production ([1]; 7.22 µM): 12.35%; ROS production ([1]; 57.76 µM): 68.12%; ROS production ([1]; 2 × IC50): ≤ 68.12%; cell cycle arrest (phase, in words) (CCRF-CEM cells [11]): cell cycle arrest in the Go/G1 phase; cells in sub-G0/G1 phase (CCRF-CEM cells [11]; 1/4 × IC50): 1.86%; cells in sub-G0/G1 phase (CCRF-CEM cells [11]; 2 × IC50): 17.40%; increase of caspases 3/7 activity [14]: 2.52 fold; annexin V (+)/PI (+) cells (CCRF-CEM cells [15]): 52.5%
COc1cc(C2Oc3ccc4c(=O)c5ccccc5oc4c3OC2CO)cc(OC)c1O (stereo not drawn) [Compound 8, 3′-hydroxymethyl-2′-(4″-hydroxy-3″,5″-dimethoxyphenyl)-5′,6′:5,6-(xanthone)-1′,4′-dioxane]	selective cytotoxic effects	30.6 ± 3.14 µM	37.8 ± 2.92 µM	31.3 ± 1.19 µM	> 85.5 µM	16.3 ± 2.12 µM	> 85.5 µM	36.9 ± 2.73 µM	30.5 ± 1.88 µM	35.5 ± 3.28 µM	43.5 ± 2.97 µM	–

Reference: publication PMC7532997, “Cytotoxic Constituents of the Bark of Hypericum roeperianum towards Multidrug-Resistant Cancer Cells” (Evidence-based Complementary and Alternative Medicine : eCAM, 2020)
